These results are taken from patent publication US20230147257A1 (DONG-A ST CO., LTD., priority 2020, published 2023).

Structures are written as SMILES. Structures can show the parent of a compound that is named as a salt.

One assay has as its target T1, AhR (Homo sapiens, UniProt P35869).
T1 construct: host or cells: HepG2
T1 sequence (P35869 11-848): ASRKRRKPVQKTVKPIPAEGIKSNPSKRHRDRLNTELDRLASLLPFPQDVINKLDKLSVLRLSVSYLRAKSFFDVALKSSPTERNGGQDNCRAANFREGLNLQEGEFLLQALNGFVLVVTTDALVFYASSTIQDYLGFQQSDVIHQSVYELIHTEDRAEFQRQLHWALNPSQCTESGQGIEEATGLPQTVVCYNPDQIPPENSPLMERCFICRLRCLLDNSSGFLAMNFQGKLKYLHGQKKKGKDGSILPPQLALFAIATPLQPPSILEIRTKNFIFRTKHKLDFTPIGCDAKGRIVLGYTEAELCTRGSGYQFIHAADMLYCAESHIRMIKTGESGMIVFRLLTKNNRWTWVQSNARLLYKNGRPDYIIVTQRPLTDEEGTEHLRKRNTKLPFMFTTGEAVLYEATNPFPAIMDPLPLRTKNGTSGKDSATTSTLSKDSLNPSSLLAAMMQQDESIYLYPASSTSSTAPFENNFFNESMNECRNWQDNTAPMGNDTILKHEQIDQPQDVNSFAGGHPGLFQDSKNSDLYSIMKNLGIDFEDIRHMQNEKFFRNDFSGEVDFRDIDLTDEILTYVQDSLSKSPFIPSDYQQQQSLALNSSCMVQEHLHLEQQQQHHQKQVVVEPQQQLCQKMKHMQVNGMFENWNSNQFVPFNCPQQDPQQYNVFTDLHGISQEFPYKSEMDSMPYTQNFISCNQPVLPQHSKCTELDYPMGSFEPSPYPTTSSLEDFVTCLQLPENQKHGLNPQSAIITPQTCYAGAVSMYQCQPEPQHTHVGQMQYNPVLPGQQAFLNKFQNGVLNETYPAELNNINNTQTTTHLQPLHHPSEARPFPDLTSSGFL
Nature of the assay: In vitro assay 1: XRE-luciferase reporter assay, antagonism in human cell line (HepG2). The format is cell-based. The following applies: HepG2 XRE-luciferase, cells treated with kynurenine 50 μM (*), 6 hours; read-out: Assay 1: AhR-Luc Human Antagonism (IC50). From the text:
In Vitro XRE-Luciferase Reporter Assay (In Vitro Assay 1, 2, 3)
AhR activation leads the induction of target gene expression such as CYP1A1 and CYP1B1 by AhR binding to AhR-responsive DNA elements also known as xenobiotics responsive elements (XRE). The assay for measuring AhR activity herein is the luciferase assay using cell lines transfected with luciferase reporter plasmid containing XREs at the upstream of the reporter gene. Cells transfected with XRE-luciferase reporter (XRE-Luc) plasmid drive luciferase activity reflecting activation and inhibition of AhR in the cells. In addition to transfection with XRE-reporter vector, cells were co-transfected with Nano-luciferase reporter gene construct (Nano-Luc) containing constitutively active promoter as internal control. Kynurenine (an endogenous AhR agonist) was used to stimulate cells to test antagonistic properties of the compounds. The half-maximal inhibitory concentration (IC50) or half-maximal effective concentration (EC50) value was calculated using nonlinear regression (four parameters) with Prism8.0 software (GraphPad).
In Vitro Assay 1: Antagonism in Human Cell Line
HepG2 (human hepatoma cell line) cell line with a XRE-luciferase reporter either transiently or stably (Invivogen) were plated in complete medium and incubated at 37° C. in a CO2 incubator. After 24 hours, cells were treated with kynurenine (50* or 200 μM) alone (negative control) or with test compounds for 6 hours. Luciferase activity was measured with a commercial kit such as the Promega Luciferase kit or other reagents for measuring luciferase activity. Relative luciferase activity (Firefly/Nano-Luc) was used to calculate IC50 values. The relative luciferase activity was further normalized with kynurenine alone group as the maximum control and the vehicle group as the minimum control. (IC50 values are grouped as A, B, C and D, whereby A: IC50<0.01 μM; B: 0.01<IC50<0.1 μM; C: 0.1<IC50<1.0 μM; D: IC50>1.0 μM)
Regarding `Cn1cc(-c2cc3c(=O)n(C4CCCC(O)C4)cnc3c(-c3cnn(C)c3)n2)cn1` (stereo not shown) [Example 2, 3-(3-hydroxycyclohexyl)-6,8-bis(1-methyl-1H-pyrazol-4-yl)pyrido[3,4-d]pyrimidin-4(3H)-one], the IC50 was in the range of 100 to 1000 nM. Consider `CCC(CO)n1cnc2c(-c3cnn(C)c3)nc(-c3ccc(C(F)(F)F)cc3)cc2c1=O` (stereo not shown) [Example 54, 3-(1-hydroxybutan-2-yl)-8-(1-methyl-1H-pyrazol-4-yl)-6-(4-(trifluoromethyl)phenyl)pyrido[3,4-d]pyrimidin-4(3H)-one], for which the IC50 was over 1000 nM. Same read-out and setting: the result for `CC(CO)n1cnc2c(-c3ccc(C(F)(F)F)cc3)nc(-c3cnn(C)c3)cc2c1=O` (stereo not shown) [Example 4, 3-(1-hydroxypropan-2-yl)-6-(1-methyl-1H-pyrazol-4-yl)-8-(4-(trifluoromethyl)phenyl)pyrido[3,4-d]pyrimidin-4(3H)-one] reads over 1000 nM. Still for that read-out and setting: as for `CC(=O)OCC(C)n1cnc2c(-c3ccc(Cl)cc3)nc(Cl)cc2c1=O` (stereo not shown) [Example 7, 2-(6-chloro-8-(4-chlorophenyl)-4-oxopyrido[3,4-d]pyrimidin-3(4H)-yl)propyl acetate], the figure is over 1000 nM; as for `Cn1cc(-c2cc3c(=O)n([C@H]4CC[C@H](O)CC4)cnc3c(-c3cnn(C)c3)n2)cn1` [Example 9, 3-((1r,4r)-4-hydroxycyclohexyl)-6,8-bis(1-methyl-1H-pyrazol-4-yl)pyrido[3,4-d]pyrimidin-4(3H)-one], 100 to 1000 nM.

Staying with this assay, now noted: HepG2 XRE-luciferase, cells treated with kynurenine 200 μM (no *), 6 hours; read-out: Assay 1: AhR-Luc Human Antagonism (IC50).
Turning to `CC(CO)N1CNc2c(cc(-c3ccc(Cl)cc3)nc2-c2cccnc2)C1=O` (stereo not shown) [Example 60], the IC50 fell in the range of 10 to 100 nM. Still for that read-out and setting: as for `Cn1cc(-c2nc(-c3ccc(C(F)(F)F)cc3)cc3c(=O)n(CC(O)C(F)(F)F)cnc23)cn1` (stereo not shown) [Example 22, 8-(1-methyl-1H-pyrazol-4-yl)-3-(3,3,3-trifluoro-2-hydroxypropyl)-6-(4-(trifluoromethyl)phenyl)pyrido[3,4-d]pyrimidin-4(3H)-one], the figure is under 10 nM; as for `O=c1c2cc(-c3cnc(C(F)(F)F)nc3)nc(-c3cccnc3)c2ncn1[C@@H]1CC[C@H](O)C1` [Example 72, 3-((1R,3S)-3-hydroxycyclopentyl)-8-(pyridin-3-yl)-6-(2-(trifluoromethyl)pyrimidin-5-yl)pyrido[3,4-d]pyrimidin-4(3H)-one, TFA salt], 10 to 100 nM. The same measure, in the same setting: the result for `CC(C(=O)O)n1cnc2c(-c3cccnc3)nc(-c3ccc(Cl)cc3)cc2c1=O` (stereo not shown) [Example 83, 2-(6-(4-chlorophenyl)-4-oxo-8-(pyridin-3-yl)pyrido[3,4-d]pyrimidin-3(4H)-yl)propanoic acid, 2,2,2-trifluoroacetic acid salt] reads 100 to 1000 nM; that for `CC(=O)NCC(C)n1cnc2c(-c3cccnc3)nc(-c3ccc(C(F)(F)F)cc3)cc2c1=O` (stereo not shown) [Example 86, N-(2-(4-oxo-8-(pyridin-3-yl)-6-(4-(trifluoromethyl)phenyl)pyrido[3,4-d]pyrimidin-3(4H)-yl)propyl)acetamide], 10 to 100 nM.

As for `CC(CN)n1cnc2c(-c3cccnc3)nc(-c3ccc(N4CCOCC4)cc3)cc2c1=O` (stereo not shown) [Example 90, 3-(1-aminopropan-2-yl)-6-(4-morpholinophenyl)-8-(pyridin-3-yl)pyrido[3,4-d]pyrimidin-4(3H)-one], the 50% inhibitory concentration (IC50) lay in the range of 100 to 1000 nM.

For `CC(CNS(C)(=O)=O)n1cnc2c(-c3cccnc3)nc(-c3ccc(N4CCOCC4)cc3)cc2c1=O` (stereo not shown) [Example 91, N-(2-(6-(4-morpholinophenyl)-4-oxo-8-(pyridin-3-yl)pyrido[3,4-d]pyrimidin-3(4H)-yl)propyl)methanesulfonamide], the IC50 was under 10 nM. The same measure, in the same setting: the result for `O=c1c2cc(-c3ccc(C(F)(F)F)cc3)nc(-c3cccnc3)c2ncn1C[C@@H](O)CO` [Example 81, (R)-3-(2,3-dihydroxypropyl)-8-(pyridin-3-yl)-6-(4-(trifluoromethyl)phenyl)pyrido[3,4-d]pyrimidin-4(3H)-one] reads under 10 nM. Regarding `CC(C)C(CO)n1cnc2c(-c3cccnc3)nc(-c3ccc(C(F)(F)F)cc3)cc2c1=O` (stereo not shown) [Example 42, 3-(1-hydroxy-3-methylbutan-2-yl)-8-(pyridin-3-yl)-6-(4-(trifluoromethyl)phenyl)pyrido[3,4-d]pyrimidin-4(3H)-one], the IC50 was over 1000 nM.

In the case of `CC(C(=O)O)n1cnc2c(-c3cccnc3)nc(-c3ccc(C(F)(F)F)cc3)cc2c1=O` (stereo not shown) [Example 84, 2-(4-oxo-8-(pyridin-3-yl)-6-(4-(trifluoromethyl)phenyl)pyrido[3,4-d]pyrimidin-3(4H)-yl)propanoic acid, 2,2,2-trifluoroacetic acid salt], the half-inhibitory concentration (IC50) lay within 100 to 1000 nM.

Turning to `CC(CN)n1cnc2c(-c3cccnc3)nc(-c3ccc(C(F)(F)F)cc3)cc2c1=O` (stereo not shown) [Example 85, 3-(1-aminopropan-2-yl)-8-(pyridin-3-yl)-6-(4-(trifluoromethyl)phenyl)pyrido[3,4-d]pyrimidin-4(3H)-one], the IC50 was in the range of 10 to 100 nM.

Regarding `CS(=O)(=O)CCn1cnc2c(-c3cccnc3)nc(-c3ccc(N4CCOCC4)cc3)cc2c1=O` [Example 79, 3-(2-(methylsulfonyl)ethyl)-6-(4-morpholinophenyl)-8-(pyridin-3-yl)pyrido[3,4-d]pyrimidin-4(3H)-one], the IC50 is under 10 nM. On the same count and under the same terms, the result for `O=c1c2cc(-c3ccc(Cl)cc3)nc(-c3cccnc3)c2ncn1C(CO)CO` [Example 70, 6-(4-chlorophenyl)-3-(1,3-dihydroxypropan-2-yl)-8-(pyridin-3-yl)pyrido[3,4-d]pyrimidin-4(3H)-one] reads under 10 nM. As for `O=c1c2cc(-c3ccc(Cl)cc3)nc(-c3cccnc3)c2ncn1-c1cccc(O)c1` [Example 61, 6-(4-chlorophenyl)-3-(3-hydroxyphenyl)-8-(pyridin-3-yl)pyrido[3,4-d]pyrimidin-4(3H)-one], the IC50 was under 10 nM. Consider `CC(C)C(CO)n1cnc2c(-c3cccnc3)nc(-c3ccc(C(F)(F)F)nc3)cc2c1=O` (stereo not shown) [Example 43, 3-(1-hydroxy-3-methylbutan-2-yl)-8-(pyridin-3-yl)-6-(6-(trifluoromethyl)pyridin-3-yl)pyrido[3,4-d]pyrimidin-4(3H)-one], for which the IC50 was over 1000 nM.

As to `CC(CO)n1cnc2c(-c3cccnc3)nc(-c3ccc(-c4ccc(Cl)cc4)cc3)cc2c1=O` (stereo not shown) [Example 74, 6-(4′-chloro-[1,1′-biphenyl]-4-yl)-3-(1-hydroxypropan-2-yl)-8-(pyridin-3-yl)pyrido[3,4-d]pyrimidin-4(3H)-one], the IC50 was under 10 nM. The same measure, in the same setting: the result for `O=c1c2cc(-c3ccc(C(F)(F)F)cc3)nc(-c3cccnc3)c2ncn1-c1cccc(O)c1` [Example 62, 3-(3-hydroxyphenyl)-8-(pyridin-3-yl)-6-(4-(trifluoromethyl)phenyl)pyrido[3,4-d]pyrimidin-4(3H)-one] reads under 10 nM. Same read-out and setting: as for `CC(=O)OC(C)(C)Cn1cnc2c(-c3cccnc3)nc(-c3ccc(Cl)cc3)cc2c1=O` [Example 36, 1-(6-(4-chlorophenyl)-4-oxo-8-(pyridin-3-yl)pyrido[3,4-d]pyrimidin-3(4H)-yl)-2-methylpropan-2-yl acetate], the figure is 10 to 100 nM; as for `O=c1c2cc(-c3ccc(Cl)cc3)nc(-c3cccnc3)c2ncn1C1CCCC(O)C1` (stereo not shown) [Example 63, 6-(4-chlorophenyl)-3-(3-hydroxycyclohexyl)-8-(pyridin-3-yl)pyrido[3,4-d]pyrimidin-4(3H)-one], under 10 nM. For `O=c1c2cc(-c3ccc(Cl)cc3)nc(-c3cccnc3)c2ncn1[C@H]1CCCC[C@H]1O` [Example 21], the half-inhibitory concentration (IC50) was over 1000 nM.

What is called IC50 is the midpoint of a concentration-inhibition curve.
